PubChem BioAssay (NCI)
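Briefly, cells in 96-well plates were exposed to five compound concentrations for 48 h, and endpoints were estimated by linear interpolation. The concentration for 50% growth inhibition is given as GI50. TGI marks complete inhibition of growth.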

Tests used:
Assay in all cases: NCI anticancer screen, dose series, 48 h
HOP-62 NSCLC = tested on: HOP-62 NSCLC
SF-539 CNS = tested on: SF-539 CNS
SK-OV-3 ovarian = tested on: SK-OV-3 ovarian
EKVX NSCLC = tested on: EKVX NSCLC
UACC-62 melanoma = tested on: UACC-62 melanoma
A549 NSCLC = tested on: A549 NSCLC
HOP-92 NSCLC = tested on: HOP-92 NSCLC
HCC-2998 colon = tested on: HCC-2998 colon
M14 melanoma = tested on: M14 melanoma
SR leukemia = tested on: SR leukemia

Compound | TGI (HOP-62 NSCLC) [µM] | TGI (SF-539 CNS) [µM] | TGI (SK-OV-3 ovarian) [µM] | TGI (EKVX NSCLC) [µM] | TGI (UACC-62 melanoma) [µM] | TGI (A549 NSCLC) [µM] | TGI (HOP-92 NSCLC) [µM] | TGI (HCC-2998 colon) [µM] | TGI (M14 melanoma) [µM] | TGI (SR leukemia) [µM] | GI50 (HOP-62 NSCLC) [µM] | GI50 (SR leukemia) [µM] | GI50 (SK-OV-3 ovarian) [µM] | GI50 (EKVX NSCLC) [µM] | GI50 (A549 NSCLC) [µM] | GI50 (HCC-2998 colon) [µM] | GI50 (M14 melanoma) [µM] | GI50 (SF-539 CNS) [µM] | GI50 (UACC-62 melanoma) [µM] | GI50 (HOP-92 NSCLC) [µM]
CC[N+](CC)(CCNCC(N)=O)CC(N)=O | > 10 | > 10 | > 10 | > 10 | > 10 | > 10 | > 10 | > 10 | > 10 |  |  |  |  |  |  |  |  |  |  | 
c1ccc(N=C2SC(=NC3CCCCC3)N(C3CCCCC3)C2=Nc2ccccc2)cc1 | > 100 |  | > 100 |  | > 100 |  |  | > 100 | > 100 | > 100 |  |  |  |  |  |  |  |  |  | 
Cc1ccc(S(=O)(=O)Oc2cc(-c3ccccc3)nc3ccccc23)cc1 | 18.8 | 4.87 | 5.23 | > 100 | 20.7 | > 78.4 | 22.9 | 4.49 |  |  |  |  |  |  |  |  |  |  |  | 
C=CC(Br)(CBr)CCC(Cl)C(C)C (centres undefined) | 3.2 | 3.84 | 18.6 | 21.8 | 2.98 | 18 | 4.72 | 1.52 | 3.18 | 2.38 |  |  |  |  |  |  |  |  |  | 
O=NN(CCCl)C(=O)NC1CCSc2ccccc21 (centres undefined) | > 100 | > 74.5 | > 100 | 94.1 | > 100 | > 100 | > 100 | > 100 |  |  |  |  |  |  |  |  |  |  |  | 
NC(Cc1cccc([N+](=O)[O-])c1)C(=O)O (centres undefined) | > 100 | > 100 | > 100 | > 100 | > 100 | > 100 | > 100 | > 100 | > 100 |  |  |  |  |  |  |  |  |  |  | 
Cc1nc(N)sc1-c1ccnc(Nc2ccc(N3CCOCC3)cc2)n1 | 60.3 |  | > 100 | > 100 |  | > 100 |  | > 100 | > 100 | 5.39 | 1.87 | 0.346 | 2.62 | 4.02 | 1.13 | 11.8 | 2.66 |  |  | 
COc1ccc(C2CC(c3cccc(Nc4ccncc4)c3)=NN2c2cc(Cl)cc(Cl)c2)cc1 (centres undefined) | 4.66 | 3.14 | 31.4 | 4.68 | 3.94 |  | 2.67 | 2.85 |  | 4.34 | 2.08 | 1.53 | 11.3 | 1.89 |  | 1.47 |  | 1.68 | 1.9 | 1.25
NC(N)=NCCN=C(N)N | > 100 | > 100 | > 100 | > 100 | > 100 | > 100 | > 100 | > 100 | > 100 |  |  |  |  |  |  |  |  |  |  | 
NNC(N)Nc1ccccc1 (centres undefined) | > 100 | > 100 | > 100 | > 100 | > 100 | > 100 | > 100 | > 100 | > 100 | > 100 |  |  |  |  |  |  |  |  |  | 
NCCCNc1nc2ccccc2c2c(=O)c3cc(OC(F)(F)F)ccc3sc12 |  | 3.15 |  |  | 3.07 |  | 2.36 | 3.25 | 3.16 |  |  |  |  |  |  | 1.71 | 1.67 | 1.68 | 1.66 | 1.08
CC(=O)Oc1cccc2c(/C=N/NC(N)=S)ncc(C)c12 | 14.6 | 1.98 | 17.1 | 39.7 | 12.3 | 25.6 | 32.9 | 18.9 | 3.18 | > 65.9 |  |  |  |  |  |  |  |  |  | 
CC1CC=CC(O)C1 (centres undefined) | > 100 | > 100 | > 100 | > 100 | > 100 | > 100 | > 100 | > 100 |  |  |  |  |  |  |  |  |  |  |  | 
O=C(OC(=O)n1ccc2ccccc21)n1ccc2ccccc21 | > 100 | > 100 | > 100 | > 100 | > 100 | > 100 | > 100 | > 100 |  |  |  |  |  |  |  |  |  |  |  | 
CCCCCN=Cc1c(O)c(O)c(C(C)C)c2cc(C)c(-c3c(C)cc4c(C(C)C)c(O)c(O)c(C=NCCCCC)c4c3O)c(O)c12 | > 100 | > 100 | 39.7 | > 100 | 33 | > 100 | 14.6 | 35.9 | > 100 | > 100 |  |  |  |  |  |  |  |  |  | 
COc1cc(C[S+]2CCCC2)c(SC)cc1C[S+]1CCCC1 | > 100 | > 100 | > 100 | > 100 | > 100 | > 100 | > 100 | > 100 | > 100 |  |  |  |  |  |  |  |  |  |  | 
Cc1cc(=O)[nH]c(NN2C(Cl)C(=O)C2c2cccc(O)c2)n1 (centres undefined) | > 100 | 31.6 |  | > 100 | 17.8 | > 100 | > 100 | > 100 | > 100 | > 100 |  |  |  |  |  |  |  |  |  | 
CCC[CH2][Ge]([CH2]CCC)([CH2]CCC)[O]C(=O)CC(=O)c1ccccc1 | 13.6 | 6.17 | 14 | 16.2 | 10.1 | 15.9 | 9.88 | 6.16 | 8.86 | 33.6 | 2.2 | 0.707 | 0.667 | 0.955 | 0.735 | 1.3 | 1.42 | 1.57 | 1.7 | 0.331
NC(CCCCP(=O)(O)O)C(=O)O (centres undefined) |  | > 100 | > 100 | > 100 | > 100 | > 100 | > 100 | > 100 | > 100 | > 100 |  |  |  |  |  |  |  |  |  | 
CCc1nc(N)nc(N)c1-c1ccc2nn(-c3ccccc3)[n+]([O-])c2c1 | 25.3 | 18.2 | > 69.3 | 35.1 | 17.5 | 27.8 | 27 | 20.5 | 18.8 | 34.1 |  |  |  |  |  |  |  |  |  | 
CC(=O)OC1CCC2(C)C3CCC4(C)C(c5ccc(=O)oc5)CC5OC54C3CCC2(O)C1 (centres undefined) | 3.41 | 2.78 | 10.2 | 3.64 | 6.95 | 2.15 | 7.59 | 14 |  |  |  |  |  |  |  |  |  |  |  | 
Nc1nc(N)c2[nH]c(CNc3ccc(C(=O)O)cc3)nc2n1 | > 100 | > 100 | > 100 | > 100 | > 100 | > 100 | > 100 | > 100 | > 100 | > 100 |  |  |  |  |  |  |  |  |  | 
O=[N+]([O-])c1ccc(C=C2C(Cl)=C(Cl)C(Cl)=C2Cl)cc1 | 4.38 | 7.09 | 29.9 | > 100 | 24.4 |  | 4.58 |  |  | 7.75 | 1.96 | 2.04 | 12.1 | 3.67 |  |  |  | 2.54 | 4.24 | 2.05
